Reference: patent US20260217983A1, “SULFONIUM SALT PHOTOINITIATORS AND METHODS OF LED CURING A COMPOSITION WITH SAID SULFONIUM SALT PHOTOINITIATORS” (ARKEMA FRANCE, priority 2022, published 2026)

Experiments:
[1] = Real time FT-IR curing performance in UViCure S105 at 365 and 385 nm; conditions: for Polymerization rate Rp/[M0]*100 / Final conversion: UViCure S105, 20 μm thickness, under air; for Final conversion: epoxide band; for cure speed compared with photoinitiators known from prior art such as Omnicat BL 550: LED lamp conditions, Example 2
Method: (§1) The curing performance of individual products prepared above was assessed using real time FT-IR measurement. The photoinitiators were dissolved in cycloaliphatic epoxy resin UViCure S105 (available from Sartomer) at the indicated wt % loading, applied onto the FT-IR measurement plate and irradiated with the indicated LED light source. The polymerization rate and final reactive group conversion were determined by monitoring the change of the relevant infrared band near 900 cm^−1 corresponding to an epoxide ring during irradiation. The molar extinction coefficients for the photoinitiator products (ε, expressed in M^−1 cm^−1) were determined in acetonitrile at 10^-3 M or 10^-5 M concentration.

[2] = Molar extinction coefficient in acetonitrile; assay type: physicochemical
Method: as §1

[3] = Real time FT-IR curing performance at 405 nm in neat TMPTA; conditions: 20 μm thickness, laminated; for Acrylate Polymerization rate Rp/[M0]*100: LED @405 nm (110 W/cm^2); for Acrylate Final conversion: LED @405 nm (110 mW/cm^2)
Method: (§2) The curing performance of individual products prepared above was assessed using real time FT-IR measurement. The photoinitiators were dissolved either in neat trimethylolpropane triacrylate (TMPTA; available as SR351 from Sartomer) or in a 1:1 (w/w) mixture of TMPTA and UViCure S105 as indicated, applied onto the FT-IR measurement plate, laminated to prevent oxygen inhibition, and irradiated with the indicated LED light source. For the epoxy component, the polymerization rate and final reactive group conversion were determined by monitoring the change of the relevant infrared band near 900 cm^−1 corresponding to an epoxide ring. For the acrylate component, the C═C stretch band near 1625 cm^−1 was used.

[4] = Real time FT-IR curing performance at 405 nm in UViCure S105/TMPTA (1:1); conditions: LED @405 nm (110 mW/cm^2), 20 μm thickness, laminated
Method: as §2

[5] = Belt curing performance (thumb-twist depth cure) in UViCure S105E resin; conditions: 24 μm film, under air, PI 2 wt %
Method: (§3) The photoinitiators were dissolved either in neat UViCure S105E resin or a hybrid acrylate/epoxy resin (prepared by mixing 60 wt parts UViCure S105E, 15 wt parts UViCure S130 and 25 wt parts SR492; all product are available from Sartomer). Formulations were prepared by combining all materials in the given proportions and then stirring at 30-40° C. until the samples were fully homogeneous; the formulations were then allowed to cool to room temperature. For all experiments, the formulations were cured on Leneta Form 3N-31 gloss finish paper at 6 μm and 24 μm film thickness using a belt-cure instrument; the films were prepared using a K-bar. All films were then cured under an LED lamp at a given belt speed. ‘Depth cure’ for each formulation was assessed using the ‘thumb-twist’ test (where no visible mark is made when a thumb is pressed down firmly onto the coating with a twisting motion), and from the belt speed; the calculated cure speed (in m/min) is given.

[6] = Belt curing performance (thumb-twist depth cure) in hybrid acrylate/epoxy resin; conditions: 24 μm film, under air, PI 2 wt %
Method: as §3

[7] = Colour index 'b' of formulations before and after polymerization; assay type: physicochemical; conditions: UViCure S105E, thin samples (20 μm), under air, 300 s irradiation
Method: The low yellowing characteristics can be measured by the Colour index ‘b’ value on cured films.
Formulations comprising the photoinitiators and neat UViCure S105E resin were prepared as described at example 2.

[8] = LED @365 nm (120 W/cm^2), PI loading 1 wt % (Omnicat BL 550 4 wt %; Speedcure 938/CPTX 1/0.5 wt %)
[9] = LED 365 nm, 100% intensity (=70.1 mJ/cm^2), belt speed 40 m/min

SMILES	Polymerization rate Rp/[M0]*100 [1, 8] [s⁻¹]	Final conversion ([1]; LED @365 nm (120 W/cm^2)) [%]	Polymerization rate Rp/[M0]*100 ([1]; LED @385 nm (160 W/cm^2)) [s⁻¹]	Final conversion ([1]; LED @385 nm (160 W/cm^2)) [%]	ε at 365 nm [2] [M⁻¹ cm⁻¹]	ε at 385 nm [2] [M⁻¹ cm⁻¹]	further results
CCCOc1ccc(Cl)c2c(=O)c3ccccc3[s+](-c3ccc(-c4ccc(OC)cc4)cc3)c12 (stereo not shown) [Photoinitiator 32, 1-chloro-10-(4′-methoxy[1,1′-biphenyl]-4-yl)-9-oxo-4-propoxy-9H-thioxanthen-10-ium Hexafluorophosphate]	3.73	28	4.86	33	4507	2055	cure speed compared with photoinitiators known from prior art such as Omnicat BL 550 [1]: higher cure speed
CC(C)c1ccc2c(c1)c(=O)c1ccccc1[s+]2-c1ccc(Oc2ccccc2)cc1 (stereo not shown) [Photoinitiator 12, 9-oxo-10-(4-phenoxyphenyl)-2-(propan-2-yl)-9H-thioxanthen-10-ium Hexafluorophosphate]	2.93	32	2.74	36	185	137	–
COc1ccc(-c2ccc(-[s+]3c4ccccc4c(=O)c4cc(C(C)C)ccc43)cc2)cc1 (stereo not shown) [Photoinitiator 26, 10-(4′-methoxy[1,1-biphenyl]-4-yl)-9-oxo-2-(propan-2-yl)-9H-thioxanthen-10-ium hexafluorophosphate]	4.94	26	3.08	28	3600	1622	cure speed compared with photoinitiators known from prior art such as Omnicat BL 550 [1]: higher cure speed
CCc1cc(CC)c2sc3ccc(-[s+]4c5ccccc5c(=O)c5cc(CC)cc(CC)c54)cc3c(=O)c2c1 (stereo not shown) [Photoinitiator 40, 10-(5,7-diethyl-9-oxo-9H-thioxanthen-2-yl)-2,4-diethyl-9-oxo-9H-thioxanthen-10-ium Hexafluorophosphate]	2.72	18	5.89	38	19117	15504	Acrylate Polymerization rate Rp/[M0]*100 [3]: 5.86 s⁻¹; Acrylate Final conversion [3]: 65%; Acrylate Final conversion [4]: 83%; Acrylate Polymerization rate Rp/[M0]*100 [4]: 10.81 s⁻¹; Epoxy Final conversion [4]: 52%; Epoxy Polymerization rate Rp/[M0]*100 [4]: 6.46 s⁻¹
COc1ccccc1-c1cc(-[s+]2c3ccccc3c(=O)c3cc(C(C)C)ccc32)ccc1OC (stereo not shown) [Photoinitiator 28, 10-(2′,6-dimethoxy[1,1′-biphenyl]-3-yl)-9-oxo-2-(propan-2-yl)-9H-thioxanthen-10-ium hexafluorophosphate]	2.29	34	5.78	36	426	268	–
CCCOc1ccc(Cl)c2c1[SH](c1ccc(Oc3ccccc3)cc1)c1ccccc1C2=O (stereo not shown) [Photoinitiator 16, 1-chloro-9-oxo-10-(4-phenoxyphenyl)-4-propoxy-9H-thioxanthen-10-ium hexafluorophosphate]	2.88	40	3.71	38	20030	6830	–
COC(=O)COc1ccc2sc3ccc(-[s+]4c5ccccc5c(=O)c5cc(OCC(=O)OC)ccc54)cc3c(=O)c2c1 (stereo not shown) [Photoinitiator 6, 2-(2-methoxy-2-oxoethoxy)-10-[7-(2-methoxy-2-oxoethoxy)-9-oxo-9H-thioxanthen-2-yl]-9-oxo-9H-thioxanthen-10-ium Hexafluorophosphate]	0.72	35	2.01	36	18314	24656	–
CCCOc1ccc(Cl)c2c(=O)c3cc([S+](c4ccc(C)cc4)c4ccc(C(=O)c5ccccc5)cc4)ccc3sc12 (stereo not shown) [Photoinitiator 3, (4-benzoylphenyl)(8-chloro-9-oxo-5-propoxy-9H-thioxanthen-2-yl)(4-methylphenyl)sulfonium hexafluorophosphate]	2.70	38	2.46	37	17066	17083	Acrylate Polymerization rate Rp/[M0]*100 [3]: 5.88 s⁻¹; Acrylate Final conversion [3]: 45%; Acrylate Final conversion [4]: 75%; Acrylate Polymerization rate Rp/[M0]*100 [4]: 5.69 s⁻¹; Epoxy Final conversion [4]: 35%; Epoxy Polymerization rate Rp/[M0]*100 [4]: 2.43 s⁻¹; Cure speed in UViCure S105E resin [5, 9]: 4.8 m/min; Cure speed in UViCure S105E resin ([5]; LED 395 nm, 40 m/min, 100% intensity (=164.5 mJ/cm^2)): 8.7 m/min; Cure speed in hybrid acrylate/epoxy resin [6, 9]: 2.2 m/min; Cure speed in hybrid acrylate/epoxy resin ([6]; LED 395 nm, 80 m/min, 50% intensity (=36.9 mJ/cm^2)): no cure; Colour index ‘b’ value After Polymerization ([7]; LED @365 nm (120 mW/cm^2)): 7.40; Colour index ‘b’ value Before Polymerization ([7]; LED @365 nm (120 mW/cm^2)): 11.28; Colour index ‘b’ value After Polymerization ([7]; LED @385 nm (160 mW/cm^2)): 7.48; Colour index ‘b’ value Before Polymerization ([7]; LED @385 nm (160 mW/cm^2)): 8.40
